From US20260191194A1, “OXABICYCLOALKANE COMPOUNDS, PREPARATION METHOD THEREFOR, AND HERBICIDAL COMPOSITION AND USE THEREOF” (QINGDAO KINGAGROOT CHEMICAL COMPOUND CO., LTD., priority 2022, published 2026)

How the values were obtained:
Assay type in all cases: in vivo
Echinochloa glabrescens [1] = assay: Activity test of compositions, soil sealing treatment (S); settings: 21 days after treatment
Experimental: (§1) The required active ingredient B was purchased from a reagent company or synthesized by a known method. The technical materials were all dissolved with acetone solvents and diluted with an aqueous solution of 0.1% Tween 80 emulsifier, which were to be used immediately after dilution.
(§2) Weeds were cultivated in a controllable sunlight greenhouse at 20 to 30° C., in natural light, and with relative humidity of 57% to 72%. […] The test soil was quantitatively filled to 3/4 of the pot, and then watered from the bottom of the pot to completely wet the soil to saturation. The test weed seeds were accelerated to just germinate, and then evenly and quantitatively sowed on the soil surface, covered with 0.5-1 cm soil according to the sizes of the seeds, and ready for use 72 hours after sowing.
(§3) Each treatment was repeated 4 times. Four pots with 20 weed seeds sowed per pot were treated each time.
(§4) The well-sowed test materials were evenly placed on a platform with an area of 0.5 m^2, and foliage spraying was carried out by the 3WP-2000-type walking spray tower at a dosage of 450 kg/ha and a spray pressure of 0.3 MPa. After all the solution was sprayed, the air valve was closed, and 30 seconds later, the door of the spray tower was opened, and the nutritional bowl was taken out. Then the air valve was opened, and the spray tube was cleaned by spraying 50 ml of water.
(§5) A method for investigating absolute numbers was employed. Whole seedlings of survival weeds were cut off with a blade along the soil surface, and the fresh weight of the weeds was weighed using an analytical balance. For dead weeds, the fresh weight thereof was zero.
(§6) The investigation was performed 21 days after the treatment for once in total.
(§7) The theoretical fresh weight inhibition rate of a mixed combination of each treatment was calculated by the Gowing method (E0=X+Y−X*Y/100). […] An optimal ratio was determined according to the actual control effects, characteristics of herbicides, and balance of the formulation. In the formula, X represents the fresh weight inhibition rate of the active ingredient A in a dosage of P; Y represents the fresh weight inhibition rate of the active ingredient B in a dosage of Q. The statistical results are shown in Table 4.

Arivela viscosa = assay: as above; settings: 21 days after treatment
Experimental: as §1, §2, §3, §4, §5, §6, §7

Soliva anthemifolia = assay: Activity test of compositions, early post-emergence foliage spray (F-EP); settings: 21 days after treatment
Experimental: as §1
(§8) Weeds were cultivated by a pot culture method. […] Weed seeds with plump and uniform grains were selected, soaked in lukewarm water at 25° C. for 6 hours, and accelerated to germinate in a 28° C. biochemical incubator (in darkness). The weed seeds that had just germinated were evenly placed on the surface of the soil and then covered with 0.5-1 cm soil according to the sizes of seeds.
(§9) The culture was carried out in a controllable sunlight greenhouse at 20 to 30° C., in natural light, and with relative humidity of 57% to 72%.
as §3
(§10) The agents were used once in total in the experiment. In the stage of 1-2 leaves, the weeds were thinned out to maintain 10 strains per treatment for later use.
as §4, with “well-cultured” for “well-sowed”, “water. The test materials were transferred to and routinely cultured in a greenhouse after the treatment.” for “water.”
as §5, §6, §7

Cyperus glomeratus = assay: Activity test of compositions, soil sealing treatment (S); settings: 21 days after treatment
Experimental: as §1, §2, §3, §4, §5, §6, §7

[2] = system: Echinochloa crus-galli var. austrojaponensis; assay: Activity test of compositions, early post-emergence foliage spray (F-EP); settings: 21 days after treatment; for pest or weed control at 300 g/ha: B alone 300 g a.i./ha
Experimental: as §1, §8, §9, §3, §10
as §4, with “well-cultured” for “well-sowed”, “water. The test materials were transferred to and routinely cultured in a greenhouse after the treatment.” for “water.”
as §5, §6, §7

Oxybasis glauca = assay: Activity test of compositions, soil sealing treatment (S); settings: 21 days after treatment
Experimental: as §1, §2, §3, §4, §5, §6, §7

Digitaria ischaemum = assay: as above; settings: 21 days after treatment
Text: as §1
The test soil was quantitatively filled to 3/4 of the pot, and then watered from the bottom of the pot to completely wet the soil to saturation. The test weed seeds were accelerated to just germinate, and then evenly and quantitatively sowed on the soil surface, covered with 0.5-1 cm soil according to the sizes of the seeds, and ready for use 72 hours after sowing.
as §3, §4, §5, §6, §7

Echinochloa glabrescens [3] = assay: Activity test of compositions, early post-emergence foliage spray (F-EP); settings: B alone 75 g a.i./ha, 21 days after treatment
Experimental: as §1, §8, §9, §3, §10
as §4, with “well-cultured” for “well-sowed”, “water. The test materials were transferred to and routinely cultured in a greenhouse after the treatment.” for “water.”
as §5, §6, §7

[4] = Echinochloa crus-galli, 504 h, read-out: Control effect of B applied alone in a corresponding dose
[5] = B alone 30 g a.i./ha (with A 60)

`CCN(C(=O)n1nnn(-c2ccccc2Cl)c1=O)C1CCCCC1` [fentrazamide] was tested, and the “Control effect of B applied alone in a corresponding dose” value (shortened to “Control effect of B applied alone”) (Echinochloa glabrescens [1]; B alone 75 g a.i./ha) was 40.3.
`CC[C@H](Oc1ccc(F)c(C(F)(F)F)c1)C(=O)NCc1ccccc1` [beflubutamid-M] showed a Control effect of B applied alone in a corresponding dose (Arivela viscosa; B alone 90 g a.i./ha) of 55.2%.
With `CC(C)CCCCCOC(=O)COc1ccc(Cl)cc1Cl` [2,4-D-isooctyl] the Control effect of B applied alone in a corresponding dose (Soliva anthemifolia; B alone 225 g a.i./ha) was 61.4%.
In the case of `CC1=C(c2ccccc2)C(=O)N(C(C)(C)c2cc(Cl)cc(Cl)c2)CO1` [oxaziclomefone], the Control effect of B applied alone in a corresponding dose (Cyperus glomeratus; B alone 22.5 g a.i./ha) is reported as 58.5%.
`CSc1nc(NC(C)C)nc(NC(C)C)n1` [prometryn] gave a pest or weed control at 300 g/ha [2, 4] of 41%.
For `CS(=O)(=O)c1ccc(C(=O)C2C(=O)CCCC2=O)c(Cl)c1COCC1CCCO1` (stereo not drawn) [tefuryltrione], the Control effect of B applied alone in a corresponding dose ([2]; B alone 15 g a.i./ha) was 51.7%.
For `C#CCN1C(=O)COc2cc(F)c(N3C(=O)C4=C(CCCC4)C3=O)cc21` [flumioxazin], the “Control effect of B applied alone” value (Oxybasis glauca; B alone 30 g a.i./ha) was 55.6.
In the case of `CC(C)c1ccc(NC(=O)N(C)C)cc1` [isoproturon], the pest or weed control at 300 g/ha [2, 4] is reported as 31.3%.
With `CS(=O)(=O)c1ccc(C(=O)C2=C(Sc3ccccc3)C3CCC(C3)C2=O)c(Cl)c1` (stereo not drawn) [benzobicyclon] the Control effect of B applied alone in a corresponding dose ([2]; B alone 60 g a.i./ha) was 48.7%.
For `C#CCN(C)c1c(C#N)cnn1-c1nn2c(c1Cl)CCCC2` [pyraclonil], the Control effect of B applied alone in a corresponding dose (Cyperus glomeratus; B alone 45 g a.i./ha) was 48.6%.
`COP(=S)(OC)SCC(=O)N(c1ccc(Cl)cc1)C(C)(C)C` [anilofos] was tested, and the “Control effect of B applied alone” value (Echinochloa glabrescens [1]; B alone 75 g a.i./ha) was 37.2.
`CCn1ncc(C(=O)c2ccc(S(C)(=O)=O)c(COCC(F)(F)F)c2Cl)c1OC(=O)c1cn(C)nc1C` [fenpyrazone] showed a Control effect of B applied alone in a corresponding dose [2, 5] of 53.1%.
`Cn1nc(C(F)(F)F)c(CS(=O)(=O)C2=NOC(C)(C)C2)c1OC(F)F` [pyroxasulfone] was tested, and the “Control effect of B applied alone” value (Digitaria ischaemum; B alone 45 g a.i./ha) was 46.3.
Compound `CCNc1nc(Cl)nc(NC(C)(C)C)n1` [terbuthylazine] has a pest or weed control at 225 g/ha ([2]; Echinochloa crus-galli, 504 h, B alone 225 g a.i./ha, read-out: Control effect of B applied alone in a corresponding dose) of 48.4%.
Compound `COc1c(Cl)ccc(-c2nc(C(=O)OCc3ccccc3)c(Cl)c(N)c2F)c1F` [florpyrauxifenbenzyl, florpyrauxifen-benzyl] has a Control effect of B applied alone in a corresponding dose (Soliva anthemifolia; B alone 7.5 g a.i./ha) of 60.2%.
For `CC(C)N(C(=O)SCC(Cl)=C(Cl)Cl)C(C)C` [triallate], the “Control effect of B applied alone” value (Digitaria ischaemum; B alone 300 g a.i./ha) was 38.4.
For `CN(C(=O)COc1nc2ccccc2s1)c1ccccc1` [mefenacet], the “Control effect of B applied alone” value (Echinochloa glabrescens [1]; B alone 150 g a.i./ha) was 37.9.
Compound `Cc1nn(C)cc1C(=O)Oc1c(C(=O)c2ccc(C(F)(F)F)cc2S(C)(=O)=O)c(C)nn1C` [bipyrazone] has a Control effect of B applied alone in a corresponding dose [2, 5] of 52.7%.
Compound `CC1(C)CON(Cc2ccc(Cl)cc2Cl)C1=O` [bixlozone] has a Control effect of B applied alone in a corresponding dose (Arivela viscosa; B alone 120 g a.i./ha) of 74.5%.
For `COC(=O)c1ccccc1CS(=O)(=O)NC(=O)Nc1nc(OC)cc(OC)n1` [bensulfuronmethyl, bensulfuron-methyl], the Control effect of B applied alone in a corresponding dose (Cyperus glomeratus; B alone 7.5 g a.i./ha) was 27.5%.
With `O=C(Nc1ccc(F)cc1F)c1cccnc1Oc1cccc(C(F)(F)F)c1` [diflufenican] the Control effect of B applied alone in a corresponding dose (Arivela viscosa; B alone 52.5 g a.i./ha) was 65.8%.
In the case of `Cc1ccn2nc(S(=O)(=O)Nc3c(F)cccc3F)nc2n1` [flumetsulam], the “Control effect of B applied alone” value (Oxybasis glauca; B alone 15 g a.i./ha) is reported as 57.9.
Work on `C[C@@H](Oc1ccc(Oc2nc3ccc(Cl)cc3o2)cc1)C(=O)N(C)c1ccccc1F` [metamifop] yielded a Control effect of B applied alone in a corresponding dose (Echinochloa glabrescens [3]) of 58.8%.
`CS(=O)(=O)c1ccc(C(=O)C2C(=O)CCCC2=O)c([N+](=O)[O-])c1` [mesotrione] gave a pest or weed control at 60 g/ha ([2]; Echinochloa crus-galli, 504 h, B alone 60 g a.i./ha (with A 60), read-out: Control effect of B applied alone in a corresponding dose) of 51.7%.
